Test: Dissolution in liquid (water, formula or milk)
Assay type: physicochemical
Experimental: The preferred form of the administration of the deoxyribonucleoside monophosphates is in the form of disodium salts of the deoxyribonucleoside monophosphates. […] Once administered, the deoxyribonucleoside monophosphates salts convert to the free acid form. By way of example, for some of the oral administration to human patients, 2000 mg each of dTMP Na2 and dCMP Na2 were dissolved in 25 ml of water.

| Dissolution in liquid (such as water, formula or milk) | SMILES |
| --- | --- |
| easily dissolved | Nc1ccn([C@H]2C[C@H](O)[C@@H](COP(=O)([O-])[O-])O2)c(=O)n1.[Na+].[Na+] [dCMP Na2] |
| easily dissolved | Cc1cn([C@H]2C[C@H](O)[C@@H](COP(=O)([O-])[O-])O2)c(=O)[nH]c1=O.[Na+].[Na+] [dTMP Na2] |
